Experimental data as given in ChEMBL document CHEMBL1141005, “Modulation of PPAR receptor subtype selectivity of the ligands: aliphatic chain vs aromatic ring as a spacer between pharmacophore and the lipophilic moiety” (Bioorg Med Chem Lett, 2008).
pEC50: −log10 of the molar value. The source made the active and inactive calls. The calls are words filed in the database; no cut-off is given here.

Key:
HpG2 = assay: Selectivity ratio of EC50 for human PPARgamma receptor to human PPARalpha receptor expressed in human HpG2 cells; format: cell-based
[1] = molecular target: T1, Peroxisome proliferator-activated receptor delta (Homo sapiens) (UniProt Q03181); assay: Agonist activity at human PPARdelta transactivation expressed in human HePG2 cells up to 1 uM; format: functional, cell-based
T1 sequence (whole entry): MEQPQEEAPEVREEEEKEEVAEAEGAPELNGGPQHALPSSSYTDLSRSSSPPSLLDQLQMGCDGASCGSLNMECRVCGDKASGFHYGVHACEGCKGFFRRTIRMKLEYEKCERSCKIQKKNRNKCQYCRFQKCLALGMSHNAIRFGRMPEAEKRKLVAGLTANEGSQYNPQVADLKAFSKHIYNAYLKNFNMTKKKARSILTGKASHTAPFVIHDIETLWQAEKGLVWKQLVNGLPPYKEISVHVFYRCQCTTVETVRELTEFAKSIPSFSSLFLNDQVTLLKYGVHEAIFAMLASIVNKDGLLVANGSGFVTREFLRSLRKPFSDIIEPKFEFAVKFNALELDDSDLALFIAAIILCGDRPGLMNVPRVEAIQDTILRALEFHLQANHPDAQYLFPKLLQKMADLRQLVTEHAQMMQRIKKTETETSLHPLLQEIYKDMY

[2] = molecular target: T2, Peroxisome proliferator-activated receptor gamma (Homo sapiens, UniProt P37231); assay: Agonist activity at human PPARgamma transactivation expressed in human HePG2 cells
T2 sequence (P37231 whole entry): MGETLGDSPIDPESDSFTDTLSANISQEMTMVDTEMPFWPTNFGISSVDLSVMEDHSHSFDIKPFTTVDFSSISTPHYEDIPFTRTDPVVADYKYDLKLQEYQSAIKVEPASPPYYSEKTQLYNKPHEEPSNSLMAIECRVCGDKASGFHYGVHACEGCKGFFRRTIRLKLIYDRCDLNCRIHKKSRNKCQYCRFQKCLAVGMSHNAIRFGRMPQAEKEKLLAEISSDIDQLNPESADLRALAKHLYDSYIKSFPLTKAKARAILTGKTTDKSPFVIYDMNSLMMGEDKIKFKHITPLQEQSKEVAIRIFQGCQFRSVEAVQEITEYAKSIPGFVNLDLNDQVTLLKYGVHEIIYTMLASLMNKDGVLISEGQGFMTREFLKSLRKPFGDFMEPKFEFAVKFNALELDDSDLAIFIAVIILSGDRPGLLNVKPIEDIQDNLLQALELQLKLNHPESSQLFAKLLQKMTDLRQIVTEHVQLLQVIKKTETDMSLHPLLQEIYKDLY

[3] = molecular target: T3, Peroxisome proliferator-activated receptor alpha (Homo sapiens, UniProt Q07869); assay: Agonist activity at human PPARalpha transactivation expressed in human HePG2 cells; format: functional, cell-based
T3 sequence (Q07869 whole entry): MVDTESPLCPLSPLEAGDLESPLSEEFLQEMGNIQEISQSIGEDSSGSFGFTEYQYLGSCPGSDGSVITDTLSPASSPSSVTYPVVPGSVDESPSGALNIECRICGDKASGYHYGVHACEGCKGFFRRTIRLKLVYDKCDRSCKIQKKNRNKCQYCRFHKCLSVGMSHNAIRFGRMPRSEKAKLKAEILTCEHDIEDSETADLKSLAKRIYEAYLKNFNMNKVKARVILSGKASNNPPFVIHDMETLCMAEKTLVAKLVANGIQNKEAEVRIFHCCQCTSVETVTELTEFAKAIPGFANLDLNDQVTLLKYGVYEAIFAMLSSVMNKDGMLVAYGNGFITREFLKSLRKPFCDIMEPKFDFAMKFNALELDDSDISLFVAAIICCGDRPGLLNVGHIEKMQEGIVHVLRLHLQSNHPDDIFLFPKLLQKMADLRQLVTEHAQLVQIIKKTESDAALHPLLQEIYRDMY

[4] = molecular target: T4, Peroxisome proliferator-activated receptor gamma (Homo sapiens) (UniProt P37231); assay: Agonist activity at human PPARgamma transactivation expressed in human HePG2 cells up to1 uM; format: functional, cell-based
T4 sequence (whole entry): T2 sequence (P37231 whole entry)

[5] = molecular target: T5, Peroxisome proliferator-activated receptor alpha (Homo sapiens) (UniProt Q07869); assay: Agonist activity at human PPARalpha transactivation expressed in human HePG2 cells up to1 uM; format: functional, cell-based
T5 sequence (whole entry): T3 sequence (Q07869 whole entry)

Activity [4] | Activity [5] | Structure (SMILES) | Ratio EC50 (HpG2) | Activity [1] | pEC50 [2] | pEC50 [3]
– | – | COc1ccc(OC(=O)N(CCCCCc2coc(-c3ccc(C)cc3)n2)CC(=O)O)cc1 | 12 | inactive | 6.25 | 7.36
– | – | Cc1ccc(-c2nc(CCCCCCO/N=C(/CCC(=O)O)c3ccccc3)c(C)o2)cc1 | 1000 | inactive | 7.00 | 10.00
– | – | COc1ccc(OC(=O)N(CC(=O)O)Cc2ccc(OCCc3nc(-c4ccccc4)oc3C)cc2)cc1 [MURAGLITAZAR] | – | inactive | – | 6.82
– | – | Cc1ccc(-c2nc(CCCCCO/N=C(/CCC(=O)O)c3ccccc3)c(C)o2)cc1 | 15 | inactive | 7.51 | 8.70
– | – | Cc1ccc(-c2nc(CCCC[C@H]3CO[C@@](C)(C(=O)O)OC3)c(C)o2)cc1 | – | inactive | 5.16 | –
– | – | COc1ccc(OC(=O)N(CCCCCCc2nc(-c3ccc(C)cc3)oc2C)CC(=O)O)cc1 | 13 | inactive | 6.35 | 7.47
– | – | Cc1ccc(-c2nc(COc3ccc(C[C@H]4CO[C@@](C)(C(=O)O)OC4)cc3)c(C)o2)cc1 | 0.2 | inactive | – | 7.14
– | – | Cc1ccc(-c2nc(CCCCO/N=C(\CCC(=O)O)c3ccccc3)c(C)o2)cc1 | 113000 | inactive | 6.37 | 11.42
inactive | inactive | COc1ccc(OC(=O)N(CCCCc2nc(-c3ccc(C)cc3)oc2C)CC(=O)O)cc1 | – | inactive | – | –
– | – | Cc1oc(-c2ccccc2)nc1COc1ccc(CO/N=C(\CCC(=O)O)c2ccccc2)cc1 [IMIGLITAZAR] | – | inactive | – | 8.10
